Laboratory results taken from publication PMC5933782, “Molecular structures of cdc2-like kinases in complex with a new inhibitor chemotype” (PLoS ONE, 2018).

How the values were obtained:
CLK2 = CLK2 (Mus musculus, UniProt O35491); test: radiometric protein kinase assay
Experimental: (§3) Buffers. Buffer A: 10 mM MgCl2, 1 mM EGTA, 1 mM DTT, 25 mM Tris-HCl pH 7.5, 50 μg heparin/mL. Buffer C: 60 mM β-glycerophosphate, 15 mM p-nitrophenylphosphate, 25 mM MOPS (pH 7.2), 15 mM EGTA, 15 mM MgCl2, 1 mM DTT, 1 mM sodium vanadate, 1 mM phenylphosphate.
(§4) Kinase activities were assayed in buffer A or C at 30°C at a final ATP concentration of 15 μmol/L. Blank values were subtracted and activities were expressed in percent of the maximal activity, i.e. in the absence of inhibitors. Controls were performed with appropriate dilutions of DMSO.
(§5) Their kinase activity was assayed in buffer A, with 1 mg histone H1/mL, in the presence of 15 μmol/L [γ-33P] ATP (3,000 Ci/mmol; 10 mCi/mL) in a final volume of 30 μL. After 30 min incubation at 30°C, the reaction was stopped by harvesting onto P81 phosphocellulose supernatant (Whatman) using a FilterMate harvester (Packard) and washing in 1% phosphoric acid. Scintillation fluid was added and the radioactivity measured in a Packard counter.
(§6) All data points for construction of dose response curves were recorded in triplicate.

CDK9/cyclin T = CDK9/cyclin T (Homo sapiens, UniProt P50750); test: radiometric protein kinase assay
Experimental: as §3, §4, §5, §6

[1] = tested on: MDA-MB-231 breast cancer cells; test: crystal violet proliferation assay; format: cell-based; conditions: Homo sapiens, 96 h exposure, triplicate
Experimental: (§1) For experiments with RC-124 cells, microtiter plates had been pretreated in the following way: 30 μL of a sterilized gelatine solution (1.5% (m/V)) were added to each well of flat bottom 96-well plates, the plates were covered with their lids, incubated for 1h at 37°C, the excess solution was removed, the wells were washed with PBS 7.4 pH, and the new cell-culture medium was added.
(§2) The antiproliferative effects were determined according to a routinely used method. In short: a volume of 100 μL of HT-29 cells (2565 cells/mL), MDA-MB-231 cells (4120 cells/mL), MCF-7 cells (4840 cells/mL) or RC-124 cells (1460 cells/mL) was transferred into the wells of 96-well plates (note: for RC-124 pretreated plates were used, see above) and incubated at 37°C/5% CO2 for 72 h (MCF-7, MDA-MB-231, RC-124) or 48 h (HT-29). Stock solutions of 8c in DMSO were prepared and diluted with the respective cell culture medium to graded concentrations (final concentration of […]: 0.1% v/v). […] Results were calculated as the mean values of three independent experiments.

[2] = tested on: HT-29 colon carcinoma cells; test: crystal violet proliferation assay; format: cell-based; conditions: Homo sapiens, 72 h exposure, triplicate
Experimental: as §1, §2

[3] = tested on: RC-124 healthy human kidney cells; test: crystal violet proliferation assay; format: cell-based; conditions: 96 h exposure, triplicate
Experimental: as §1, §2

[4] = tested on: MCF-7 breast carcinoma cells; test: crystal violet proliferation assay; format: cell-based; conditions: Homo sapiens, MCF7, 96 h exposure, duplicate
Experimental: as §1, §2

CLK3 = CLK3 (Mus musculus, UniProt O35492); test: radiometric protein kinase assay
CDK2/cyclin A = target: T1, CDK2/cyclin A (Homo sapiens, UniProt P24941); test: radiometric protein kinase assay; format: biochemical; conditions: 15 μmol/L ATP; read-out: IC50 CDK2/cyclinA
T1 construct: made in house

CK1δ/ε = test: radiometric protein kinase assay; format: biochemical, porcine; conditions: 15 μmol/L ATP; read-out: IC50 CK1
DYRK1B = DYRK1B (Homo sapiens, UniProt Q9Y463); test: radiometric protein kinase assay; format: biochemical; conditions: 15 μmol/L ATP; read-out: IC50 DYRK 1B
CLK4 = CLK4 (Mus musculus, UniProt O35493); test: radiometric protein kinase assay
DYRK2 = target: T2, DYRK2 (Homo sapiens, UniProt Q92630); test: radiometric protein kinase assay; format: biochemical; conditions: 15 μmol/L ATP; read-out: IC50 DYRK 2
T2 sequence (Q92630 1-601): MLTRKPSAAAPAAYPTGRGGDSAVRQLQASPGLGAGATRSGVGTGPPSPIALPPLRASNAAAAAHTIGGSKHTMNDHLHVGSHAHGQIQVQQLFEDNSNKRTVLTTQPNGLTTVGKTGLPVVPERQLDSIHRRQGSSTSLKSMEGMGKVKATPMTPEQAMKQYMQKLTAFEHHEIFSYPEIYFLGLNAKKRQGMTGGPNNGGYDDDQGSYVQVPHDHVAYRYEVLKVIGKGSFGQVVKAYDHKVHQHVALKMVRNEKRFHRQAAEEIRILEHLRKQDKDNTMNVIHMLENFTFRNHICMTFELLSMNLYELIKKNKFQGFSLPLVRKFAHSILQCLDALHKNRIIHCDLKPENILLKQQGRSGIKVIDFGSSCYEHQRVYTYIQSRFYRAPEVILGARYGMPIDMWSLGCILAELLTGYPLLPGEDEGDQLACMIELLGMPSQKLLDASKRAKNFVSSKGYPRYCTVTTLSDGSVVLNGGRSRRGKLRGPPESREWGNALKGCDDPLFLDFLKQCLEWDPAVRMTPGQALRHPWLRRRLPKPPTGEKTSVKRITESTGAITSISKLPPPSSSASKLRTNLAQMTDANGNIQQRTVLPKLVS

CDK1/cyclin B = test: radiometric protein kinase assay; format: biochemical, starfish; conditions: 15 μmol/L ATP
UACC-257 = test: NCI cancer cell line screening; format: cell-based, human
Experimental: Being the most promising compound in terms of CLK1 inhibitory potency and selectivity, KuWal151 (8c) was tested in the National Cancer Institute cancer cell line screening on 57 tumor cell lines of different tissue origin [45]. With only a few exceptions, KuWal151 inhibited the growth of most cell lines in submicromolar concentrations. In Table 2 the cancer cell line inhibition data is listed with the expression rates of SPF45 and CLK1 as indicated in the Expression Atlas database (https://www.ebi.ac.uk/gxa/home). Apparently the cell lines with high levels of CLK1 encoding RNA are inhibited over average. […] However, the available data are not sufficient to construe a clear relationship between the expression levels of the putative target CLK1 and sensitivity of the cell lines against 8c. The same holds true for SPF45, an important substrate of CLK1 involved in splicing which is found to be overexpressed in many cancer cell lines. […] The lack of a straight relationship between CLK1 and/or SPF45 expression levels on the one hand and sensitivity against the CLK1 inhibitor 8c on the other hand may have various reasons, e.g. different uptake rates of the inhibitor by the cells or alternative intracellular targets. […]

Sequence of CLK4 (O35493 whole entry): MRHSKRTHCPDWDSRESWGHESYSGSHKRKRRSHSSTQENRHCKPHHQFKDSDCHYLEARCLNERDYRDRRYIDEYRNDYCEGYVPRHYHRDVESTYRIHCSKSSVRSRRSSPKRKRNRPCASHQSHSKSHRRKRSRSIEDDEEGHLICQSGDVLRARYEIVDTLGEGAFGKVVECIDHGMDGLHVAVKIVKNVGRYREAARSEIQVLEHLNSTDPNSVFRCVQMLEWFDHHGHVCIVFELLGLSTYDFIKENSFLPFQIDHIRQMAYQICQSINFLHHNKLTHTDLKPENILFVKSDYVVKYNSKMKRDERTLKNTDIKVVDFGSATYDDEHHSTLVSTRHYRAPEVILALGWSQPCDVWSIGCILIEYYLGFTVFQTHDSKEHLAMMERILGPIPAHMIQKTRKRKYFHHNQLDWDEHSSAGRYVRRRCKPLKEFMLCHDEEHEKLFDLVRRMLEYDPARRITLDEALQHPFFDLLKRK
Sequence of CDK9/cyclin T (P50750 whole entry): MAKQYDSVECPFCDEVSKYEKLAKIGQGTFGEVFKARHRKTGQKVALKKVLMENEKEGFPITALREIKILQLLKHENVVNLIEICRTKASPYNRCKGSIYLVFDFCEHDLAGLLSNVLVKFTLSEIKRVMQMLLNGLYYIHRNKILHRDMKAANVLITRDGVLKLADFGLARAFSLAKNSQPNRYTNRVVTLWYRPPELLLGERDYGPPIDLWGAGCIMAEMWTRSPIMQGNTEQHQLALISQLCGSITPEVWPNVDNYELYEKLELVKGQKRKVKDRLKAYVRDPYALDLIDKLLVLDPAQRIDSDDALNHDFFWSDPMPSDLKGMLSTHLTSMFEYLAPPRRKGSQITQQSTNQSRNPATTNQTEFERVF
Sequence of CDK9/cyclin T (O60563 whole entry partner): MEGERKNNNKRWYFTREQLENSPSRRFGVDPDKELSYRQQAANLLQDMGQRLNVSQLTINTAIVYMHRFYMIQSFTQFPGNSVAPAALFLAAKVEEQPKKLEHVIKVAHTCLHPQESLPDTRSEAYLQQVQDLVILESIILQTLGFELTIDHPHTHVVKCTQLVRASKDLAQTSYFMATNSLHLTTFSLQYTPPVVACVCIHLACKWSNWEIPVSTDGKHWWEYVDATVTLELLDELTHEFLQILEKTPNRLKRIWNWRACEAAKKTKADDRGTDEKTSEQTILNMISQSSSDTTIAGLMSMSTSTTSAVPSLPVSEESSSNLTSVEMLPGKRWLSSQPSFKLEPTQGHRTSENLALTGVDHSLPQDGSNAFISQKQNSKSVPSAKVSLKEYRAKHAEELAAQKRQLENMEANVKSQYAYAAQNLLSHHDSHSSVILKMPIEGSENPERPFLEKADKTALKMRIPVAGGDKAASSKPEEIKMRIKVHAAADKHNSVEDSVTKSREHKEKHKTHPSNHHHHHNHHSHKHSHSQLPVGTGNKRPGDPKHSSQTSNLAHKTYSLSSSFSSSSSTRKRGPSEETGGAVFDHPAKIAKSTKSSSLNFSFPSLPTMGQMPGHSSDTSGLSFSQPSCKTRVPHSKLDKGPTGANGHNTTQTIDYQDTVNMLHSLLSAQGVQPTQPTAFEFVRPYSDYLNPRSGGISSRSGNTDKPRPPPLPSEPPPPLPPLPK
Sequence of CLK3 (O35492 whole entry): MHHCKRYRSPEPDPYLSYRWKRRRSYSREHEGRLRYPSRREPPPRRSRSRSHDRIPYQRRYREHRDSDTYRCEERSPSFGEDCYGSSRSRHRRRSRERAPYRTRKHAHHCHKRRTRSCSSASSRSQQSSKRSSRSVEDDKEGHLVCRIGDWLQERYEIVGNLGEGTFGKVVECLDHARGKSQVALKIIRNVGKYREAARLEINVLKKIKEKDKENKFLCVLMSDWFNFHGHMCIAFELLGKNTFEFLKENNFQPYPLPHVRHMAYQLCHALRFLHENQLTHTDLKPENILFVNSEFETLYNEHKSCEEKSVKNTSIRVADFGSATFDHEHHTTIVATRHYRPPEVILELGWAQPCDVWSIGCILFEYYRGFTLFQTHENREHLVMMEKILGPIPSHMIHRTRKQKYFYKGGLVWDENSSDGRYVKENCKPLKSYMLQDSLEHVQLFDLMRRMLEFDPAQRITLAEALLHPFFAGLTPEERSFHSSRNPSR
Sequence of CLK2 (O35491 whole entry): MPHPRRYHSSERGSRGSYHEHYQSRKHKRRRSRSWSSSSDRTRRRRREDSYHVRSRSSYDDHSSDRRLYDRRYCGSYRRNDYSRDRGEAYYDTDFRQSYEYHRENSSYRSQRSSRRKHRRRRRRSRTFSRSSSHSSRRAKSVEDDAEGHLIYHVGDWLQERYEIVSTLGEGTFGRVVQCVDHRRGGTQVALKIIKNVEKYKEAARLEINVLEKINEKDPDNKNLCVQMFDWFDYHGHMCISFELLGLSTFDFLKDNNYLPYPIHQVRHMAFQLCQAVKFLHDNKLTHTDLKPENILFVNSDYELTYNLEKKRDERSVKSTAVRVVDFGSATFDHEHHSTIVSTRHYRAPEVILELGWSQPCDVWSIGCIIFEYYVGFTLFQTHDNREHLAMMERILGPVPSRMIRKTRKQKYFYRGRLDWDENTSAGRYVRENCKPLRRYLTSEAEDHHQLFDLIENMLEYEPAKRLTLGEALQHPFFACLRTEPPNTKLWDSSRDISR
Sequence of DYRK1B (Q9Y463 whole entry): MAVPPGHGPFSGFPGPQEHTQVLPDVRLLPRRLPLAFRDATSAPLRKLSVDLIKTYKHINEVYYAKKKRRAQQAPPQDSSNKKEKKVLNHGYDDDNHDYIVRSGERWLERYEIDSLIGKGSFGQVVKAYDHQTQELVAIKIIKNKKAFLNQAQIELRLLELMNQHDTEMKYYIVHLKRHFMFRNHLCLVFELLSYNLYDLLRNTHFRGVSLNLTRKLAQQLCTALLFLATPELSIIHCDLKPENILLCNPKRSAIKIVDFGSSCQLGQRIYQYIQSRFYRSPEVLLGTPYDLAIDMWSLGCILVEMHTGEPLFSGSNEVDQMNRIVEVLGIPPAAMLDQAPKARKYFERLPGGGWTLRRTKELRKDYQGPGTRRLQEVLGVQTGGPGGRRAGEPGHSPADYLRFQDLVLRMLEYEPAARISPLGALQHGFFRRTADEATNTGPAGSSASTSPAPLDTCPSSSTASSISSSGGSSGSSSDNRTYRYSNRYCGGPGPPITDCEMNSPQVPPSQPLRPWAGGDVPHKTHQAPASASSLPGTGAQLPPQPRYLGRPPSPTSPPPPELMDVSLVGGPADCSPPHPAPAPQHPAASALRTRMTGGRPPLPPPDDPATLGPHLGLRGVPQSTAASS

`O=C1NCc2ccc3c(-c4cccc(Cl)c4)c[nH]c3c21` [8c, 3-(3-Chlorophenyl)-6,7-dihydropyrrolo[3,4-g]indol-8(1H)-one] showed an IC50 (CLK2) of 510 nM, an IC50 (CDK9/cyclin T) greater than 10000 nM and a GI50 [1] of 280 ± 50 nM. For the same molecule, the GI50 [2] was 120 ± 10 nM, the GI50 [3] was 440 ± 100 nM and the GI50 [4] was 350 ± 160 nM. It also gave an IC50 (CLK3) greater than 10000 nM, an IC50 (CDK2/cyclin A) greater than 10000 nM and an IC50 (CK1δ/ε) greater than 10000 nM. It also gave an IC50 (DYRK1B) greater than 10000 nM, an IC50 (CLK4) of 28 nM and an IC50 (DYRK2) greater than 10000 nM. The IC50 (CDK1/cyclin B) was greater than 10000 nM, the GI50 (UACC-257; Homo sapiens, UACC-257, UACC-257, Melanoma) was greater than 50000 nM and the GI50 (UACC-257; UACC-257, Melanoma) was greater than 50100 nM.
